This note sets out measurements from patent US20040132121A1, “Method of identifying antibacterial compounds” (priority 2000, published 2004).

Each structure is given as a SMILES string. “Also recorded” adds a separate entry of the source.

The target in experiment [1] is T1, binding of E. coli α to E. coli β (Escherichia coli, UniProt P0A988).
T1 construct: made in house
The experiment can be described thus: biochemical. To be noted: Table 21; Molsci (CMS) compounds, buffer BB37 (10 mM MnCl2); read-out: IC50 α-binding. As for the experimental part:
Recombinantly expressed wild type E. coli α subunit was purified and coated onto 96 well microtitre plates (Falcon flexible plates, Becton Dickinson) at 20 μg/ml in 100 mM Na2CO3, pH9.5 (50 μl/well, 4° C. overnight or 2 h, RT (RT). The plates were washed in WB3 (20 mM Tris (pH 7.5), 0.1 mM EDTA containing 0.05% v/v Tween 20). This buffer was used in all wash steps through out the assay. The plates were then blocked with “blotto” (5% skim milk powder in WB3, 100 μl/well, RT) until required. Immediately before use the plates were washed.
The purified synthetic peptides and β subunit were diluted in BB14 (20 mM Tris, pH 7.5, 10 mM MgCl2, 0.1 mM EDTA). Purified synthetic peptides with concentrations of 9.3-300 and 1000 μg/ml were allowed to complex with purified wild type β subunit (5 μg/ml) in a 96 well microtitre plate (Sarsted, Adelaide, Australia) pre-treated with “blotto” (30 min, RT). The reaction volume was 120 μl. The β subunit also was incubated in the absence of peptide or in the presence of the α subunit at 76.5 (μg/ml in BB14. All samples were incubated for 1 h (RT). Two 50 μl samples were transferred from each well to a corresponding well of the washed and “blocked” α subunit coated plates, and further incubated for 30 min (RT).
The plates were washed and treated with rabbit serum raised to the β subunit. The anti-serum was diluted 1:1000 in WB3 containing 10% “blotto”, dispensed at 50 μl/well and incubated for 12 min (RT). The plates were washed again and treated with sheep anti-rabbit Ig-HRP conjugate (Silenus, Melbourne, Australia) diluted 1:1000 in WB3 containing 10% “blotto” (50 μl/well). The plate was incubated for 12 min (RT). After a final washing step, 1 mM 2,2′-azino-bis (3-ethylbenzthiazoline-6-sulfonic acid) was added (110 μl/well). Colour development was assessed at 405 nm using a plate reader (Multiskan Ascent, Labsystems, Sweden).
For the CMS compounds in the of α:β assays, buffer BB37 replaced buffer BB14. Buffer BB37 contains 10 mM MnCl2 instead of the 10 mM MgCl2 used in BB14. The buffer conditions were changed to improve the reproducibility and sensitivity of the α:β binding assay.
Compounds from the CMS library were dissolved in DMSO at 1 mg/ml in a 96 well tray format. A corresponding slave plate was prepared by adding 115 μl of BB37. Dissolved compounds (5 μl) from the master plate was added to the corresponding well in slave plates giving a final concentration of 41.7 μg/ml.
Compounds were assayed for inhibition of the binding of E. coli α to E. coli β as described in Example 13.
Peptides were assayed for inhibition of the binding of E. coli α to E. coli β as described in Example 6 with the exception that buffer BB37 replaced buffer BB14 in the alpha:beta binding assay. As noted above, BB37 contains 10 mM MnCl2 instead of 10 mM MgCl2 used in BB14. Again, the change in buffer conditions was made to improve the reproducibility and sensitivity of the α:β binding assay.

The target in experiment [2] is binding of E. coli δ to E. coli β (Escherichia coli, UniProt P0A988). The experiment can be described thus: biochemical. To be noted: for IC50: IC50 δ-binding, Table 21.
Sequence of binding of E. coli δ to E. coli β (P0A988 whole entry): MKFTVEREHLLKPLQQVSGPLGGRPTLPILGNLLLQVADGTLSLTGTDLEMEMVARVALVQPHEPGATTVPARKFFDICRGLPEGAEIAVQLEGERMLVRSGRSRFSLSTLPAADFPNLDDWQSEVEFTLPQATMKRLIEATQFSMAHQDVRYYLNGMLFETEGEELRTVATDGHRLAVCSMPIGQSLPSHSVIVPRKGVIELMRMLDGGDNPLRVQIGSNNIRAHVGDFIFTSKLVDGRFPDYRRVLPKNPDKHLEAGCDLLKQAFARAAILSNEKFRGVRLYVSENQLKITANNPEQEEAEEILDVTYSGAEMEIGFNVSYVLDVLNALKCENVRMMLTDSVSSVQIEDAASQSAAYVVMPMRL
In experiment [3] the test system is Enterococcus faecalis ATCC 33186. The experiment can be described thus: Bacterial growth inhibition screen (A620). The experiment is classed as cell-based. To be noted: overnight 35° C.; for inhibition at 50 µg/mL: ATCC33186, compound 50 μg/ml, read-out: inhibition of growth of E. faecalis. The protocol: (§1) Compounds with high similarity scores, or at the intersection of the results of searches using a number of different approaches, and available from the NCI or Molecular Science libraries were obtained and screened for inhibition of growth of E. coli ATCC 35218, Klebsiella pneumoniae ATCC 13885, Pseudomonas aeruginosa ATCC 27853, Staphylococcus aureus ATCC 25923 and Enterococcus faecalis ATCC 33186 as follows. Compounds were supplied dissolved in DMSO at 1 mg/ml in a 96 well tray format. Six corresponding slave plates were prepared by adding 85 μl of sterile water, and 100 μl of two times Muller Hinton broth. Dissolved compounds (5 μl) from the master plate was added to the corresponding well in slave plates giving a final concentration of 50 μg/ml.
(§2) Plates were then transferred to a PC2 Laboratory for inoculation with selected bacterial strains. The strains are freshly grown and diluted in normal saline to 0.5 McFarland Standard (NCCLS Performance standard for Dilution Antimicrobial Susceptibility Testing M7-A4 January 1997). This solution was further diluted 1:10 in normal saline to form the bacterial inoculation culture. 10 μl was used to inoculate each well. Plates were covered and placed in a 35° C. incubator over night before A620 was determined. Tetracycline was used as a standard antimicrobial compound.

Experiment [4] deals with Staphylococcus aureus ATCC 25923. Put plainly: Bacterial growth inhibition screen (A620). The experiment is classed as cell-based. To be noted: overnight 35° C.; for inhibition at 50 µg/mL: ATCC25923, compound 50 μg/ml, read-out: inhibition of growth of S. aureus. The protocol:
as §1, §2

The subject of experiment [5] is E. coli ATCC 35218. Put plainly: Bacterial growth inhibition screen (A620). To be noted: Escherichia coli, ATCC35218, test conc 35 μg/ml, overnight 35° C., read-out: percent growth inhibition E. coli. The experiment is classed as cell-based. As for the experimental part:
as §1, §2

Experiment [6] concerns Klebsiella pneumoniae ATCC 13885. The experiment can be described thus: Bacterial growth inhibition screen (A620). The experiment is classed as cell-based. To be noted: ATCC13885, test conc 35 μg/ml, overnight 35° C., read-out: percent growth inhibition K. pneumoniae. The protocol: as §1, §2
The subject of experiment [7] is Pseudomonas aeruginosa ATCC 27853. Put plainly: Bacterial growth inhibition screen (A620). To be noted: ATCC27853, test conc 35 μg/ml, overnight 35° C., read-out: percent growth inhibition P. aeruginosa. The experiment is classed as cell-based. The protocol:
as §1, §2

As a reminder, the IC50 is the concentration at which inhibition is half-maximal. The term inhibition denotes the drop in the measured response relative to a control, in per cent.

T1 sequence (P0A988 whole entry): as above

Consider `CCC/C(=N\OC/C(Cl)=C/c1ccc(Cl)cc1)C1C(=O)CC(C)(C)CC1=O` [AOC-07877], for which the values for the concentration for half-maximal inhibition (IC50) in experiment [1] and in experiment [2] were 270 µM and 90 µM, respectively. Besides, in experiment [2] (plate binding assay as in Example 6), the “inhibition of the binding of δ to β” value is reported as “significantly inhibited; also recorded: significant inhibitory activity”. For the same compound, the inhibition at 50 µg/mL in experiment [3] and in experiment [4] was greater than 50% in each case.
`CCC/C(=N\OC/C(C)=C(\O)c1ccc(C)cc1)C1C(=O)CC(CC)(CC)CC1=O` [AOC-08944]: the IC50 in experiment [1] and in experiment [2] was greater than 300 µM each time. Further, the inhibition at 50 µg/mL in experiment [3] and in experiment [4] was greater than 50% throughout.
Turning to `CCC/C(=N\OC/C(Cl)=C/c1ccc(Cl)cc1)C1C(=O)CC(C)(C)CC1=O` [Peptide 07877], the inhibition at 35 µg/mL in experiment [5] amounted to 17.6%; in experiment [3] (ATCC33186, test conc 35 μg/ml, A620, read-out: percent growth inhibition E. faecalis), 59.6%; in experiment [6] it was 8.3%; in experiment [7], 3.9%; in experiment [4] (ATCC25923, test conc 35 μg/ml, A620, read-out: percent growth inhibition S. aureus), 84.7%.
